Source: patent US11299496B2, “Ligands for alpha-7 nicotinic acetylcholine receptors and methods of treating neurological and inflammatory conditions” (Northeastern University, priority 2014, dated 2022)

Target: T1, human alpha-7 nAChR (Homo sapiens, UniProt P36544)
T1 construct: expressed in transfected cells; host or cells: Xenopus laevis oocytes (cRNA injection)
Experiment: Two-electrode voltage clamp of alpha-7 nAChR expressed in Xenopus oocytes (net charge)
Format: cell-based
Conditions: area under the curve of current vs. time; for Charge Alone: compound alone acting as an allosteric agonist; for Charge +C: compound together with choline or ACh, includes PAM and ago-PAM activity; call rule not given here
Method: The human alpha-7 nAChR receptor clone was obtained from Dr. Jon Lindstrom {University of Pennsylvania, Philadelphia, Pa.), aid the RIC-3 clone from Dr. Millet Treinin (Hebrew University, Jerusalem, Israel) for the purpose of co-injection with a7 to improve the level and speed of receptor expression (Halevi et al., 2003). After linearization and purification of cloned cDNA's, RNA, transcripts were prepared rising the appropriate mMessage mMachine kit tiom Ambion (Austin, Tex.).
Expression in X, laeivis Oocytes
Oocytes were obtained from mature (>9 cm) female Xenopus laeivis African frogs (Nasco, Ft. Atkinson, Wis.). Frogs were anesthetized in 0.7 g/L solution of ethyl 3-aminobenzoate methanesulfonate buffered with sodium bicarbonate, and oocytes were surgically removed through an abdominal incision. Harvested oocytes were treated with 1.25 mg/ml collagenase (Worthington Biochemicals, Freehold, N.J.) in calcium-free Barth's solution (88 mM NaCl, 1 mM KCl, 2.38 mM NaHCO3, 0.82 mM MgSO4, 15 mM HEPES, 12 mg/L tetracycline, pH 7.6) for 3-4 hours to remove the follicular layer. Stage-5 oocytes were isolated and injected with 50 nL (5-20 ng) of human alpha-7 and RIC-3 cRNA. Suitable levels of receptor expression were typically achieved 2-6 days after injection of cRNA. For experiments involving the PAM 4BP-TQS/GAT-107, where standard levels of expression result in ion currents too large to be recorded in voltage clamp, experiments were typically conducted 1-3 days after RNA injection.
Two-electrode voltage clamp experiments were conducted using OpusXpress6000A (Molecular Devices, Sunnyvale, Calif.), an integrated system that provides automated impalement and voltage clamp of up to eight oocytes in parallel. Both the current and voltage electrodes were filled with 3 M KCl, and oocytes were clamped at a holding potential of −60 mV. Data were collected at 50 Hz and filtered at 20 Hz. The oocytes were bath-perfused with Ringer's solution (115 mM NaCl, 10 mM HEPES, 2.5 mM KCl, 1.8 mM CaCl2, pH 7.3), and agonist solutions were delivered from a 96-well drug plate using disposable tips. Flow rates were set at 2 mL/min, with each drug or control solution delivered in 12 s durations, followed˜by 181 s washouts with Ringer's unless noted otherwise.
Experimental Protocols and Data Analysis
Responses of human alpha-7 receptors to agonists were measured as both peek current and net charge measured over a 120 s period beginning with the compound application (Papke and Papke, 2002). […] In experiments involving positive allosteric modulators (PAMs), the fast desensitization of alpha-7 was eliminated, allowing peak currents to be used as a valid measurement of the receptor-mediated responses (Wang et al., 2012; Williams et al., 2011).
Oocytes received two control ACh applications prior to receiving any drug in order to establish a steady reference response, and they received one or more control ACh applications at the end of all experiments. For experiments involving drug incubation through bath applications, all responses were normalized to the average of two ACh control responses taken immediately prior to the switch of bath solution, for each cell individually. These normalization procedures had the effect of compensating for differing levels of receptor expression among the multiple oocytes used in each experiment. Each experiment was conducted on at least four oocytes, with mean values and standard errors (S.E.M.) calculated from their normalized responses. […]

T1 sequence (P36544 23-502): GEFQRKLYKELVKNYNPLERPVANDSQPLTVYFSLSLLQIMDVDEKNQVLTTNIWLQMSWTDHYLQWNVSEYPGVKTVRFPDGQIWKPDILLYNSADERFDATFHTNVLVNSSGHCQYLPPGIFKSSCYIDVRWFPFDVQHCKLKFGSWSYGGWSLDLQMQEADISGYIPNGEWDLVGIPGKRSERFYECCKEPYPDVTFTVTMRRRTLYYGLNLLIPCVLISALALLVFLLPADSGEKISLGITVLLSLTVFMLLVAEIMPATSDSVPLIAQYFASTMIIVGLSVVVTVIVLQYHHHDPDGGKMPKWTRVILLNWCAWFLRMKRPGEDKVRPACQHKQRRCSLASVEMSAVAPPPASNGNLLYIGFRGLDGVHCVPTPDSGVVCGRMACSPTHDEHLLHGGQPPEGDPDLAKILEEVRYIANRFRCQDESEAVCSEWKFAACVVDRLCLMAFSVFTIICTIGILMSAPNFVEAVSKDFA

SMILES	Charge Alone	Charge +C
CC(C)(C)NS(=O)(=O)c1ccc2c(c1)[C@H]1C=CC[C@H]1[C@@H](c1ccc(Br)cc1)N2 (stereo in doubt) [Compound 101, 4-(4-bromophenyl)-N-(tert-butyl)-3a,4,5,9b-tetrahydro-3H-cyclopenta[c]quinoline-8-sulfonamide]	Inactive	Inactive
CCNS(=O)(=O)c1ccc2c(c1)[C@@H]1C=CC[C@@H]1[C@@H](c1ccc(Br)cc1)N2 [Compound 113]	Inactive	Inactive
CS(=O)(=O)c1ccc2c(c1)[C@H]1C=CC[C@H]1[C@@H](c1ccc(Br)cc1)N2 [Compound 117, 4-(4-bromophenyl)-8-(methylsulfonyl)-3a,4,5,9b-tetrahydro-3H-cyclopenta[c]quinolone]	Inactive	Inactive
NS(=O)(=O)c1ccc2c(c1)[C@H]1C=CC[C@H]1[C@@H](C1CCCCC1)N2 (stereo in doubt) [Compound 19, 4-cyclohexyl-3a,4,5,9b-tetrahydro-3H-cyclopenta[c]quinoline-8-sulfonamide]	Inactive	Inactive
C=C(C)CNS(=O)(=O)c1ccc2c(c1)[C@H]1C=CC[C@H]1[C@@H](c1ccc(Br)cc1)N2 (stereo in doubt) [Compound 108, 4-(4-bromophenyl)-N-(2-methylallyl)-3a,4,5,9b-tetrahydro-3H-cyclopenta[c]quinoline-8-sulfonamide]	Inactive	Inactive
COC(=O)Nc1ccc([C@H]2Nc3ccc(S(N)(=O)=O)cc3[C@H]3C=CC[C@H]32)cc1 [Compound 59, methyl(4-(8-sulfamoyl-3a,4,5,9b-tetrahydro-3H-cyclopenta[c]quinolin-4-yl)phenyl)carbamate]		480
NS(=O)(=O)c1ccc2c(c1)[C@H]1C=CC[C@H]1[C@@H](c1cc3ccccc3s1)N2 (stereo in doubt) [Compound 41, 4-(benzo[b]thiophen-2-yl)-3a,4,5,9b-tetrahydro-3H-cyclopenta[c]quinoline-8-sulfonamide]	3	528
NS(=O)(=O)c1ccc2c(c1)[C@H]1CCC[C@H]1[C@@H](c1ccc(Br)cc1)N2 (stereo in doubt) [Compound 5, 4-(4-bromophenyl)-2,3,3a,4,5,9b-hexahydro-1H-cyclopenta[c]quinoline-8-sulfonamide]	23	93
NS(=O)(=O)c1ccc2c(c1)[C@H]1C=CC[C@H]1[C@@H](c1ccc3sccc3c1)N2 (stereo in doubt) [Compound 96, 4-(benzo[b]thiophen-5-yl)-3a,4,5,9b-tetrahydro-3H-cyclopenta[c]quinoline-8-sulfonamide]	116	156
O=C(O)c1ccc2c(c1)[C@H]1C=CC[C@H]1[C@@H](c1ccc(Br)cc1)N2 (stereo in doubt) [Compound 40, 4-(4-bromophenyl)-3a,4,5,9b-tetrahydro-3H-cyclopenta[c]quinoline-8-carboxylic acid]	Inactive	Inactive
O=S(=O)(c1ccc2c(c1)[C@H]1C=CC[C@H]1[C@@H](c1ccc(Br)cc1)N2)N1CCC1 [Compound 54, 8-(azetidin-1-ylsulfonyl)-4-(4-bromophenyl)-3a,4,5,9b-tetrahydro-3H-cyclopenta[c]quinolone]	Inactive	Inactive
NS(=O)(=O)c1ccc2c(c1)[C@H]1C=CC[C@H]1[C@@H](c1c(F)c(F)c(F)c(F)c1F)N2 (stereo in doubt) [Compound 42, 4-(perfluorophenyl)-3a,4,5,9b-tetrahydro-3H-cyclopenta[c]quinoline-8-sulfonamide]		47
CCN(CC)S(=O)(=O)c1ccc2c(c1)[C@H]1C=CC[C@H]1[C@@H](c1ccc(Br)cc1)N2 (stereo in doubt) [Compound 55, 4-(4-bromophenyl)-N,N-diethyl-3a,4,5,9b-tetrahydro-3H-cyclopenta[c]quinoline-8-sulfonamide]	Inactive	Inactive
CC(C)OC(=O)Nc1ccc([C@H]2Nc3ccc(S(N)(=O)=O)cc3[C@H]3C=CC[C@H]32)cc1 (stereo in doubt) [Compound 68, isopropyl (4-(8-sulfamoyl-3a,4,5,9b-tetrahydro-3H-cyclopenta[c]quinolin-4-yl)phenyl)carbamate]	80	156
NS(=O)(=O)c1cccc2c1N[C@H](c1ccc(Br)cc1)[C@@H]1CC=C[C@H]21 (stereo in doubt) [Compound 11, 4-(4-bromophenyl)-3a,4,5,9b-tetrahydro-3H-cyclopenta[c]quinoline-6-sulfonamide]	Inactive	Inactive
NS(=O)(=O)c1ccc2c(c1)[C@H]1C=CC[C@H]1[C@@H](c1ccoc1)N2 (stereo in doubt) [Compound 14, 4-(furan-3-yl)-3a,4,5,9b-tetrahydro-3H-cyclopenta[c]quinoline-8-sulfonamide]	Inactive	Inactive
NS(=O)(=O)c1ccc2c(c1)[C@H]1C=CC[C@H]1[C@@H](c1ccccn1)N2 (stereo in doubt) [Compound 52, 4-(pyridin-2-yl)-3a,4,5,9b-tetrahydro-3H-cyclopenta[c]quinoline-8-sulfonamide]		4
CCCNS(=O)(=O)c1ccc2c(c1)[C@H]1C=CC[C@H]1[C@@H](c1ccccc1)N2 (stereo in doubt) [Compound 112, 4-phenyl-N-propyl-3a,4,5,9b-tetrahydro-3H-cyclopenta[c]quinoline-8-sulfonamide]	Inactive	Inactive
NS(=O)(=O)c1ccc2c(c1)[C@H]1C=CC[C@H]1[C@@H](c1ccc([N+](=O)[O-])cc1)N2 (stereo in doubt) [Compound 8, 4-(4-nitrophenyl)-3a,4,5,9b-tetrahydro-3H-cyclopenta[c]quinoline-8-sulfonamide]	43	318
NS(=O)(=O)c1ccc2c(c1)[C@H]1C=CC[C@H]1[C@@H](c1ccc(S(F)(F)(F)(F)F)cc1)N2 (stereo in doubt) [Compound 31, 4-(4-(pentafluoro-λ^6-sulfanyl)phenyl)-3a,4,5,9b-tetrahydro-3H-cyclopenta[c]quinoline-8-sulfonamide]	89	206
[N-]=[N+]=Nc1ccc([C@H]2Nc3ccc(S(N)(=O)=O)cc3[C@H]3C=CC[C@H]32)cc1 (stereo in doubt) [Compound 25, 4-(4-azidophenyl)-3a,4,5,9b-tetrahydro-3H-cyclopenta[c]quinoline-8-sulfonamide]	61	
O=S(=O)(Nc1ccccc1)c1ccc2c(c1)[C@H]1C=CC[C@H]1[C@@H](c1ccc(Br)cc1)N2 (stereo in doubt) [Compound 103, 4-(4-bromophenyl)-N-phenyl-3a,4,5,9b-tetrahydro-3H-cyclopenta[c]quinoline-8-sulfonamide]	Inactive	Inactive
O=S(=O)(NCC1CC1)c1ccc2c(c1)[C@H]1C=CC[C@H]1[C@@H](c1ccc(Br)cc1)N2 (stereo in doubt) [Compound 105, 4-(4-bromophenyl)-N-(cyclopropylmethyl)-3a,4,5,9b-tetrahydro-3H-cyclopenta[c]quinoline-8-sulfonamide]	Inactive	Inactive
